Assay results reported in US20100267561A1, “HERBICIDAL PYRIDAZINONE DERIVATIVES” (priority 2007, published 2010).

Key:
Assay in all cases: Test B pre-/postemergence plant response
Type in all cases: in vivo
[1] = test system: blackgrass (Alopecurus myosuroides); details: for Blackgrass plant response rating: 8 g ai/ha
Summary of the method: (§1)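 Seeds were sown and sprayed preemergence, while plants at 2 to 18 cm (1- to 4-leaf stage) got postemergence sprays. Compounds were formulated in a non-phytotoxic solvent mixture with surfactant. After 13 to 15 days in a greenhouse, injury was rated visually against untreated controls, 0 (no effect) to 100 (complete control).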

[2] = test system: catchweed bedstraw (Galium aparine); details: Preemergence
Summary of the method: as §1

[3] = test system: cocklebur (Xanthium strumarium); details: for Cocklebur plant response rating: 8 g ai/ha
Summary of the method: as §1

[4] = test system: common ragweed (Ambrosia elation); details: for Ragweed plant response rating: 8 g ai/ha
Summary of the method: as §1

corn (Zea mays) = details: for Corn plant response rating: 8 g ai/ha
Summary of the method: as §1

[5] = test system: green foxtail (Setaria viridis); details: for Foxtail, Green plant response rating: 8 g ai/ha
Summary of the method: as §1

kochia (Kochia scoparia) = details: for Kochia plant response rating: 8 g ai/ha
Summary of the method: as §1

[6] = test system: lambsquarters (Chenopodium album); details: for Lambsquarters plant response rating: 8 g ai/ha
Summary of the method: as §1

[7] = test system: large crabgrass (Digitaria sanguinalis); details: for Crabgrass, Large plant response rating: 8 g ai/ha
Summary of the method: as §1

[8] = test system: pigweed (Amaranthus retroflexus); details: for Pigweed plant response rating: 8 g ai/ha
Summary of the method: as §1

[9] = test system: velvetleaf (Abutilon theophrasti); details: for Velvetleaf plant response rating: 8 g ai/ha
Summary of the method: as §1

wild oat (Avena fatua) = details: for Oat, Wild plant response rating: 8 g ai/ha
Summary of the method: as §1

[10] = test system: woolly cupgrass (Eriochloa villosa); details: for Cupgrass, Woolly plant response rating: 8 g ai/ha
Summary of the method: as §1

[11] = test system: yellow nutsedge (Cyperus esculentus)
Summary of the method: as §1

[12] = Postemergence, 16 g ai/ha, scale 0 to 100
[13] = Postemergence, 31 g ai/ha, scale 0 to 100, 0 no effect, 100 complete control
[14] = Postemergence, 62 g ai/ha, scale 0 to 100
[15] = Preemergence, 16 g ai/ha, scale 0 to 100 (0 no effect, 100 complete control)
[16] = Preemergence, 31 g ai/ha, 0 to 100 scale, 0 no effect, 100 complete control
[17] = Preemergence, 62 g ai/ha, scale 0 to 100

CCc1cc(-c2ccc(Cl)cc2)nn1-c1c(O)cnn(C)c1=O [Compound 21]
80: Plant response rating, Corn (corn (Zea mays); [15]) | Plant response rating, Crabgrass, Large [7, 15] | Plant response rating, Crabgrass, Large [7, 16]
100: Plant response rating, Blackgrass [1, 13] | Plant response rating, Blackgrass [1, 14] | Plant response rating, Blackgrass [1, 15] | Plant response rating, Blackgrass [1, 16] | Plant response rating, Blackgrass [1, 17] | Plant response rating, Corn (corn (Zea mays); [12]) | Plant response rating, Corn (corn (Zea mays); [13]) | Plant response rating, Corn (corn (Zea mays); [14]) | Plant response rating, Foxtail, Green [5, 12] | Plant response rating, Foxtail, Green [5, 13] | Plant response rating, Foxtail, Green [5, 14] | Plant response rating, Foxtail, Green [5, 15] | Plant response rating, Foxtail, Green [5, 16] | Plant response rating, Foxtail, Green [5, 17] | Foxtail, Green plant response rating ([5]; Preemergence, scale 0 to 100) | Plant response rating, Lambsquarters [6, 16] | Plant response rating, Lambsquarters [6, 17] | Plant response rating, Crabgrass, Large [7, 12] | Plant response rating, Crabgrass, Large [7, 13] | Plant response rating, Crabgrass, Large [7, 14] | Plant response rating, Crabgrass, Large [7, 17] | Plant response rating, Oat, Wild (wild oat (Avena fatua); [12]) | Plant response rating, Oat, Wild (wild oat (Avena fatua); [13]) | Plant response rating, Oat, Wild (wild oat (Avena fatua); [14]) | Cupgrass, Woolly plant response rating ([10]; postemergence, 0-100 scale) | Plant response rating, Cupgrass, Woolly [10, 12] | Plant response rating, Cupgrass, Woolly [10, 13] | Plant response rating, Cupgrass, Woolly [10, 14] | Plant response rating, Cupgrass, Woolly [10, 15] | Plant response rating, Cupgrass, Woolly [10, 17]
70: Corn plant response rating (corn (Zea mays); Preemergence, scale 0 to 100)
90: Plant response rating, Galium ([2]; 62 g ai/ha, scale 0 to 100) | Plant response rating, Oat, Wild (wild oat (Avena fatua); [16])
0: Plant response rating, Galium ([2]; 16 g ai/ha, scale 0 to 100 (0 no effect, 100 complete control)) | Plant response rating, Galium ([2]; 31 g ai/ha, 0 to 100 scale, 0 no effect, 100 complete control) | Galium plant response rating ([2]; 8 g ai/ha, scale 0 to 100) | Cocklebur plant response rating ([3]; postemergence, 0-100 scale) | Plant response rating, Cocklebur [3, 12] | Plant response rating, Cocklebur [3, 13] | Plant response rating, Cocklebur [3, 14] | Plant response rating, Cocklebur [3, 15] | Plant response rating, Cocklebur [3, 16] | Plant response rating, Cocklebur [3, 17] | Cocklebur plant response rating ([3]; Preemergence, scale 0 to 100) | Ragweed plant response rating ([4]; postemergence, 0-100 scale) | Plant response rating, Ragweed [4, 12] | Plant response rating, Ragweed [4, 13] | Plant response rating, Ragweed [4, 14] | Plant response rating, Ragweed [4, 15] | Plant response rating, Ragweed [4, 16] | Plant response rating, Ragweed [4, 17] | Ragweed plant response rating ([4]; Preemergence, scale 0 to 100) | Kochia plant response rating (kochia (Kochia scoparia); postemergence, 0-100 scale) | Plant response rating, Kochia (kochia (Kochia scoparia); [12]) | Plant response rating, Kochia (kochia (Kochia scoparia); [13]) | Plant response rating, Kochia (kochia (Kochia scoparia); [14]) | Plant response rating, Kochia (kochia (Kochia scoparia); [15]) | Plant response rating, Kochia (kochia (Kochia scoparia); [16]) | Plant response rating, Kochia (kochia (Kochia scoparia); [17]) | Kochia plant response rating (kochia (Kochia scoparia); Preemergence, scale 0 to 100) | Lambsquarters plant response rating ([6]; postemergence, 0-100 scale) | Plant response rating, Lambsquarters [6, 12] | Plant response rating, Lambsquarters [6, 13] | Plant response rating, Lambsquarters [6, 14] | Plant response rating, Lambsquarters [6, 15] | Lambsquarters plant response rating ([6]; Preemergence, scale 0 to 100) | Crabgrass, Large plant response rating ([7]; Preemergence, scale 0 to 100) | Pigweed plant response rating ([8]; postemergence, 0-100 scale) | Plant response rating, Pigweed [8, 12] | Plant response rating, Pigweed [8, 13] | Plant response rating, Pigweed [8, 14] | Plant response rating, Pigweed [8, 15] | Plant response rating, Pigweed [8, 16] | Plant response rating, Pigweed [8, 17] | Pigweed plant response rating ([8]; Preemergence, scale 0 to 100) | Velvetleaf plant response rating ([9]; postemergence, 0-100 scale) | Plant response rating, Velvetleaf [9, 12] | Plant response rating, Velvetleaf [9, 13] | Plant response rating, Velvetleaf [9, 14] | Plant response rating, Velvetleaf [9, 16] | Plant response rating, Velvetleaf [9, 17] | Velvetleaf plant response rating ([9]; Preemergence, scale 0 to 100) | Nutsedge, Yellow plant response rating ([11]; 8 g ai/ha, postemergence, 0-100 scale) | Plant response rating, Nutsedge, Yellow [11, 12] | Plant response rating, Nutsedge, Yellow [11, 13] | Plant response rating, Nutsedge, Yellow [11, 14] | Plant response rating, Nutsedge, Yellow [11, 15] | Plant response rating, Nutsedge, Yellow [11, 16] | Plant response rating, Nutsedge, Yellow [11, 17]
65: Oat, Wild plant response rating (wild oat (Avena fatua); Preemergence, scale 0 to 100)
98: Plant response rating, Corn (corn (Zea mays); [17]) | Oat, Wild plant response rating (wild oat (Avena fatua); postemergence, 0-100 scale)
60: Cupgrass, Woolly plant response rating ([10]; Preemergence, scale 0 to 100)
95: Blackgrass plant response rating ([1]; postemergence, 0-100 scale) | Plant response rating, Blackgrass [1, 12] | Blackgrass plant response rating ([1]; Preemergence, scale 0 to 100) | Plant response rating, Corn (corn (Zea mays); [16]) | Foxtail, Green plant response rating ([5]; postemergence, 0-100 scale) | Crabgrass, Large plant response rating ([7]; postemergence, 0-100 scale) | Plant response rating, Oat, Wild (wild oat (Avena fatua); [17])
85: Plant response rating, Oat, Wild (wild oat (Avena fatua); [15])
50: Corn plant response rating (corn (Zea mays); postemergence, 0-100 scale)
